Results: patent US10059669B2, “2-amino-3,5-difluoro-3,6-dimethyl-6-phenyl-3,4,5,6-tetrahydropyridines as BACE1 inhibitors for treating alzheimer's disease” (H. Lundbeck A/S, priority 2014, dated 2018)

What was measured:
Aβ40 = assay: Assessment of Aβ levels in rat brain and plasma following BACE1 inhibition (Aβ40 ELISA); format: in vivo; settings: 180 minutes, vs vehicle
Description: Assessment of Aβ Levels in Rat Brain and Plasma Following BACE1 Inhibition. Animals.
All rat care and experimental procedures were approved by Lundbeck Veterinary Staff, according to Danish legislature. The rats were maintained in a barrier facility with a 12/12-h light/dark cycle and ad libitum food and water access.
Young adult Male Sprague Dawley rats of approximately 250 g weight were purchased from Charles River and received 0-30 mg/kg of vehicle (10% HP betaCD+1M MeSO4, pH 2.5) or test compounds (dissolved in vehicle) only by oral gavage (p.o). The compounds are dosed at a volume of 5 ml/kg. Cohorts of 5-10 animals were established for each treatment condition.
At T=180 minutes after initial dosing the animals were stunned and decapitated with a guillotine. Trunk-blood was sampled in EDTA coated tubes after decapitation of the animal. The blood was centrifuged at 2200G at 4° C. for 15 minutes and the plasma was collected and frozen at −80° C. The blood was aliquoted for Aβ ELISA and DMPK analysis. Immediately following sacrifice, the brain was extracted and split into 2 halves. The right hemibrains were snap frozen on dry ice and stored at −80° C. The left half was dissected; with the front forebrain taken for Aβ ELISA and the remainder used for DMPK analysis. These samples were also snap frozen on dry ice and stored at −80° C. until use for analysis.
The cortex samples were thawed slightly on wet ice before they were homogenized with a small volume dispersing instrument (T10 basic ULTRA-TURRAX®) which was set at speed 5 for approximately 5-7 sec. The tissue was processed in a 10 times volume of the weight, for example 100 mg of tissue was homogenized in 1000 μL of Homogenization buffer. Homogenization buffer: 50 ml Milli Q water+50 nM NaCl+0.2% Diethylamin (DEA)+1 tablet of Complete Protease inhibitor cocktail+1 nM 4-(2-aminoethyl) benzenesulfonyl fluoride hydrochloride irreversible serine protease inhibitor (AEBSF).
After homogenization 450 μL aliquots of the samples are collected into a 1.5 ml Eppendorf tube and placed on wet ice, 0.5% NP-40 (50 ul) was added to all samples and then they were incubated on ice for 30 min. After which all samples were sonicated using an Ultrasonic homogenizer with 20 kHz homogeneous sound (SONOPLUS HD2070, Bandelin Electronic) 10 pulse set at 12-13% power to extract all the Aβ species. The samples were then centrifuged (Ole Dich 157 MPRF Micro centrifuge) at 20000G for 20 minutes at 4° C. After centrifugation 285 μL of the supernatant was pipetted into 600 μL microtubes tubes and neutralized with 15 μL of 1M Tris-HCL buffer.
WAKO 294-62501 Human/Rat Abeta amyloid (40) kit was used for all ELISA analyses. 30 μL plasma samples or 30 μL of the cortex supernatants generated as described above were placed in 600 μL microtubes tubes on wet ice. To this 30 μL of 8M Urea (AppliChem A1049, 9025) are added to generate a 2-fold dilution. Both plasma and cortex supernatants are incubated on ice for 30 min. Standard rows were prepared from the standard peptide stock provided in the kit and standard diluent containing 1.6M Urea (200 μL 8M Urea+800 μL of standard diluent) and 0.8M Urea (400 μL 8M Urea+3600 μL Standard diluent). A serial 2-fold dilution of A340 from […] to 0 μmol/L was prepared for the assay.
After incubation with urea, all samples were further diluted by addition of 5 times standard diluent from the Kit. This was done by adding 240 μL Standard Diluent to 60 μL sample/urea mixture, which was then mixed well. 100 μL of each diluted sample was pipetted into designated wells of the ELISA plate in duplicates. The plate was then covered and incubated overnight at 4° C. The following day, the ELISA kit was brought to room temperature before use. The incubated plate was washed 5 times with the 20× washing solution diluted in Milli Q water. 100 μL HRP-conjugate was applied to each well, and the plate was covered and incubates at 4° C. for 1 hr. The wash was repeated again for 5 times. […]

BACE1 = BACE1 (Homo sapiens (Human), UniProt P56817); assay: BACE1 efficacy assay (FRET-based, commercial BACE1 kit); format: biochemical; settings: 10 μM test compound
Chain of BACE1 (P56817 46-501): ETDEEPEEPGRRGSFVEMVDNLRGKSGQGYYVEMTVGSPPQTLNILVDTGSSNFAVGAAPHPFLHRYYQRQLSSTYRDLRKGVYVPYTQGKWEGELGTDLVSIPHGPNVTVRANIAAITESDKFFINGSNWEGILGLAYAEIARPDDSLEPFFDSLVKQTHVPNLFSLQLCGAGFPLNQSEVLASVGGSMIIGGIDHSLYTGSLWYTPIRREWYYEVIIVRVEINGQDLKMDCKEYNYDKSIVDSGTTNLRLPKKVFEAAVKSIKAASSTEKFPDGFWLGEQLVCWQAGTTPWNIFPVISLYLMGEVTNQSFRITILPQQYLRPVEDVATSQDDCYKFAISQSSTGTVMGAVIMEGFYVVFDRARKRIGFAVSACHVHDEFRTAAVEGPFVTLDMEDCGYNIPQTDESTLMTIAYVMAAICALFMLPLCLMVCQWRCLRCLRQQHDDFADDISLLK
Description: The efficacy assay was performed as a FRET-based assay using a commercially available BACE1 kit (Life Technologies, P2985). 2 μl test compound at 10 μM (final concentration) and 15 μl BACE1 enzyme from the kit (final concentration 3 nM) were preincubated for 15 minutes at room temperature before addition of 15 μl of substrate from the kit (250 nM final concentration) and incubated for additional 90 minutes at room temperature. The assay plate was subsequently read in a Pherastar (Ex540/Em590). The enzyme activity observed in presence of test compound were normalized to the enzyme activity observed in presence of buffer and 10 μM (final concentration) of the high affinity BACE1 reference inhibitor (S)-6-[3-Chloro-5-(5-prop-1-ynyl-pyridin-3-yl)-thiophen-2-yl]-2-imino-3,6-dimethyl-tetra-hydropyrimidin-4-one, respectively. The efficacy of the test compounds was evaluated at 10 μM (final concentration) and defined as the percent inhibition of the enzyme activity using the equation % inhibition=100%−normalized enzyme activity in percent.

P-gp (MDR1) = assay: MDCK-MDR1 assay (permeability, efflux ratio); format: in vitro ADME; settings: dog, Papp BA/Papp AB, 60-minute incubation, Pgp substrate when ≥2
Description: The permeability of the test compounds was assessed in MDCK-MDR1 cells that were cultured to confluency (4-6 days) in a 96 transwell plate. Test compounds were diluted with the transport buffer (HBSS+1% BSA) to a concentration of 0.5 μM and applied to the apical or basolateral side of the cell monolayer. Permeation of the test compounds from A to B direction or B to A direction was determined in triplicate over a 60-minute incubation time at 37° C. and 5% CO2 with a relative humidity of 95%. Test compounds were quantified by LC-MS/MS analysis based on the peaks area ratios of analyte/IS in both the receiver and donor wells of the transwell plate.
The apparent permeability coefficient Papp (cm/s) was calculated using the equation: Papp=(dCr/dt)×Vr/(A×C0)
Where dCr/dt is the cumulative concentration of compound in the receiver chamber as a function of time (M/s); Vr is the solution volume in the receiver chamber (0.05 mL on the apical side; 0.25 mL on the basolateral side); A is the surface area for the transport, i.e. 0.0804 cm^2 for the area of the monolayer; C0 is the initial concentration in the donor chamber (VIM).
Compounds are classified Pgp substrates when efflux ratio (Papp BA/Papp AB) is ≥2.

Row | Structure (SMILES) | Aβ40 reduction (Aβ40; Brain Rat, 10 mg/kg p.o.) [%] | Aβ40 reduction (Aβ40; Brain Rat, 30 mg/kg p.o.) [%] | Aβ40 reduction (Aβ40; Plasma Rat, 10 mg/kg p.o.) [%] | Aβ40 reduction (Aβ40; Plasma Rat, 30 mg/kg p.o.) [%] | inhibition at 10 µM (BACE1) [%] | efflux ratio at 60 min, 0.5 μM (P-gp (MDR1)) | Aβ40 reduction (Aβ40; Brain Rat, 3 mg/kg p.o.) [%] | Aβ40 reduction (Aβ40; Plasma Rat, 3 mg/kg p.o.) [%]
1 | [2H]C([2H])([2H])Oc1ccc(C(=O)Nc2ccc(F)c([C@@]3(C)N=C(N)[C@@](C)(F)C[C@@H]3F)c2)nc1 [Compound 19, N-(3-((2R,3S,5S)-6-amino-3,5-difluoro-2,5-dimethyl-2,3,4,5-tetrahydropyridin-2-yl)-4-fluorophenyl)-5-(methoxy-d3)picolinamide] | 56 | 66 | 49 | 53 | 106 | 0.79 | – | –
2 | [2H]C([2H])([2H])Oc1cnc(C(=O)Nc2ccc(F)c([C@@]3(C)N=C(N)[C@@](C)(F)C[C@@H]3F)c2)cn1 [Compound 20, N-(3-((2R,3S,5S)-6-amino-3,5-difluoro-2,5-dimethyl-2,3,4,5-tetrahydropyridin-2-yl)-4-fluorophenyl)-5-(methoxy-d3)pyrazine-2-carboxamide] | – | – | – | – | 106 | 0.85 | 52 | 64
3 | COc1ccc(C(=O)Nc2ccc(F)c([C@@]3(C)N=C(N)[C@@](C)(F)C[C@@H]3F)c2)nc1 [Compound 3, N-(3-((2R,3S,5S)-6-amino-3,5-difluoro-2,5-dimethyl-2,3,4,5-tetrahydropyridin-2-yl)-4-fluorophenyl)-5-methoxypicolinamide] | 35 | 61 | 24 | 53 | 102 | 0.96 | – | –
